# Measured values as given in BindingDB's records for doi:10.1016/j.bmcl.2010.04.020 (Kalypsys, 2010).
# Test: Inhibition of ROCK1 in human GTM3 cells by impedance assay
row,SMILES,EC50 [nM]
1,Cc1cccc(C(N)c2ccc3sc(-c4ccnc(N)n4)c(C)c3c2)c1 (racemic) [(+/-)--4-(5-(amino(m-tolyl)methyl)-3-methylbenzo[b]thiophen-2-yl)pyrimidin-2-amine],1900
2,Cc1c(-c2ccnc(N)n2)sc2ccc(CN)cc12 [4-(5-(aminomethyl)-3-methylbenzo[b]thiophen-2-yl)pyrimidin-2-amine],> 10000
3,Cc1c(-c2ccnc(N)n2)sc2ccc(Cc3cccc(C(F)(F)F)c3)cc12 [4-(3-methyl-5-(3-(trifluoromethyl)benzyl)benzo[b]thiophen-2-yl)pyrimidin-2-amine],> 10000
4,CCC(N)c1ccc2sc(-c3ccnc(N)n3)c(C)c2c1 (racemic) [(+/-)-4-(5-(1-aminopropyl)-3-methylbenzo[b]thiophen-2-yl)pyrimidin-2-amine],1700
5,Cc1c(-c2ccnc(N)n2)sc2ccc(C(N)c3cccc(Cl)c3)cc12 (racemic) [(+/-)--4-(5-(amino(3-chlorophenyl)methyl)-3-methylbenzo[b]thiophen-2-yl)pyrimidin-2-amine],2700
6,COc1cccc(Cc2ccc3sc(-c4ccnc(N)n4)c(C)c3c2)c1 [4-(5-(3-methoxybenzyl)-3-methylbenzo[b]thiophen-2-yl)pyrimidin-2-amine],> 10000
7,Cc1c(-c2ccnc(N)n2)sc2ccc(Cc3ccccc3)cc12 [4-(5-benzyl-3-methylbenzo[b]thiophen-2-yl)pyrimidin-2-amine],> 10000
8,Cc1c(-c2ccnc(N)n2)sc2ccc(C(N)CC(C)C)cc12 (racemic) [(+/-)-4-(5-(1-amino-3-methylbutyl)-3-methylbenzo[b]thiophen-2-yl)pyrimidin-2-amine],1400
9,Cc1c(-c2ccnc(N)n2)sc2ccc(C(N)C(C)C)cc12 (racemic) [(+/-)-4-(5-(1-amino-2-methylpropyl)-3-methylbenzo[b]thiophen-2-yl)pyrimidin-2-amine],2100
10,Cc1c(-c2ccnc(N)n2)sc2ccc(-c3ccccc3)cc12 [4-(3-methyl-5-phenylbenzo[b]thiophen-2-yl)pyrimidin-2-amine],> 10000
11,COc1ccc(C(N)c2ccc3sc(-c4ccnc(N)n4)c(C)c3c2)cc1 (racemic) [(+/-)--4-(5-(amino(4-methoxyphenyl)methyl)-3-methylbenzo[b]thiophen-2-yl)pyrimidin-2-amine],2600
12,Cc1c(-c2ccnc(N)n2)sc2ccccc12 [4-(3-methylbenzo[b]thiophen-2-yl)pyrimidin-2-amine],> 10000
13,COc1ccccc1Cc1ccc2sc(-c3ccnc(N)n3)c(C)c2c1 [4-(5-(2-methoxybenzyl)-3-methylbenzo[b]thiophen-2-yl)pyrimidin-2-amine],> 10000
14,Cc1c(-c2ccnc(N)n2)sc2ccc(Cc3cccc(C(=O)O)c3)cc12 [3-((2-(2-aminopyrimidin-4-yl)-3-methylbenzo[b]thiophen-5-yl)methyl)benzoic acid],> 10000
15,COc1ccc(Cc2ccc3sc(-c4ccnc(N)n4)c(C)c3c2)cc1 [4-(5-(4-methoxybenzyl)-3-methylbenzo[b]thiophen-2-yl)pyrimidin-2-amine],> 10000
16,CCCC(N)c1ccc2sc(-c3ccnc(N)n3)c(C)c2c1 (racemic) [(+/-)-4-(5-(1-aminobutyl)-3-methylbenzo[b]thiophen-2-yl)pyrimidin-2-amine],600
17,Cc1c(-c2ccnc(N)n2)sc2ccc(C(N)c3ccccc3)cc12 (racemic) [(+/-)-4-(5-(amino(phenyl)methyl)-3-methylbenzo[b]thiophen-2-yl)pyrimidin-2-amine],1400
18,COc1cccc(C(N)c2ccc3sc(-c4ccnc(N)n4)c(C)c3c2)c1 (racemic) [(+/-)-4-(5-(amino(3-methoxyphenyl)methyl)-3-methylbenzo[b]thiophen-2-yl)pyrimidin-2-amine],3600
19,COC(=O)c1cccc(Cc2ccc3sc(-c4ccnc(N)n4)c(C)c3c2)c1 [methyl 3-((2-(2-aminopyrimidin-4-yl)-3-methylbenzo[b]thiophen-5-yl)methyl)benzoate],> 10000
20,Cc1c(-c2ccnc(N)n2)sc2ccc(C(C)N)cc12 (racemic) [(+/-)-4-(5-(1-aminoethyl)-3-methylbenzo[b]thiophen-2-yl)pyrimidin-2-amine],4200
21,Cc1c(-c2ccnc(N)n2)sc2ccc(Cc3cccc(O)c3)cc12 [3-((2-(2-aminopyrimidin-4-yl)-3-methylbenzo[b]thiophen-5-yl)methyl)phenol],2900
